The values below come from patent publication US10905665B2, “Chemical modulators of signaling pathways and therapeutic use” (Duke University, priority 2015, dated 2021).

Holding throughout (format): cell-based
For test [1], the target named is T1, Frizzled1-GFP (Homo sapiens, UniProt Q9UP38).
T1 construct: expressed in transfected cells
As to the kind of experiment: Frizzled internalization assay (Fzd1-GFP). The arrangement: key: Punctate similar to control=0; trace amount of punctate greater than control=1; moderate=3; strong=5. The conditions noted are these: 6 hours, 0-5 point scale. Here is the method: The Fzd1-GFP assay was performed following a procedure similar to previously published work (Chen, M. Y.; Wang, J. B.; Lu, J. Y.; Bond, M. C.; Ren, X. R.; Lyerly, H. K.; Barak, L. S.; Chen, W. Biochemistry 2009, 48, 10267). Cells stably expressing Frizzled1-GFP plated in confocal dishes were treated, after 24 hours, with 12.5 μM of test compound or DMSO for 6 hours at 37° C. followed by fixation with 4% paraformaldehyde. The cells were then examined by microscopy using a LSM 510-Meta confocal microscope (Carl Zeiss, Thornwood, N.Y., USA) equipped with 40× and 100× apo chromat objectives. YFP was excited using a 488-nm argon laser line. Images were processed using the LSM software Image Browser (CarlZeiss, Thornwood, N.Y., USA). Plates were read twice in blinded fashion using a 0-5 point scale. ^aPunctate similar to control=0, trace amount of punctate greater than control=1, moderate=3, strong=5.

Test [2] relates to Wnt/β-catenin transcription. As to the kind of experiment: Wnt-3A-stimulated TOPFlash reporter assay in HEK293 cells. The note with it: Homo sapiens, Wnt-3A conditioned medium, 8 hour treatment, read-out: Inhibition Wnt/β-catenin transcription TopFlash IC50. As for the experimental part:
Stably transfected cells were seeded in 100 μl of cell growth medium/well in 96-well plates at 100% confluency. Fifty microliters of Wnt-3A conditioned medium containing the chemical compounds to be tested or DMSO was added to each well. After an 8 hour treatment, the cells were washed once with PBS and lysed with 55 μl of Passive Lysis Buffer supplied in the Dual-Luciferase Reporter Assay kit (Promega, Madison, Wis.). Twenty-five microliters of cell lysate was used for measuring luciferase activity in a 96-well plate reader (FluoStar Optima, BMG Labtech, Chicago, Ill.). Data were fit using GraphPad Prism (mean±SEM, n>=2).
Background: Reporter assays use an easily measured gene product as a stand-in for the process of interest.

Test [3] deals with β-catenin. Description: Western blot of cytosolic β-catenin in HCT-116 cells. The note with it: Homo sapiens, 2.0 μM compound, read-out: Remaining cytosolic β-catenin. As for the experimental part: Western blots were performed following a procedure similar to previously published work (Osada, T.; Chen, M. Y.; Yang, X. Y.; Spasojevic, I.; Vandeusen, J. B.; Hsu, D.; Clary, B. M.; Clay, T. M.; Chen, W.; Morse, M. A.; Lyerly, H. K. Cancer Research 2011, 71, 4172). HCT-116 cells were grown to about 80% confluency in poly-D-lysine coated six-well plates 48 hours before treatment and followed by 2.0 μM compounds or DMSO incubation for 18 hours in growth medium. After treatment, the cytosolic fraction was isolated as described (Osada, T.; Chen, M. Y.; Yang, X. Y.; Spasojevic, I.; Vandeusen, J. B.; Hsu, D.; Clary, B. M.; Clay, T. M.; Chen, W.; Morse, M. A.; Lyerly, H. K. Cancer Research 2011, 71, 4172). Immunoblots using antibodies to […] (E-5, Santa Cruz Biotechnology catalog number sc-7963) was used to detect β-catenin protein levels in the cytosol, and immunoblots using antibodies to β-actin (C-4, Santa Cruz Biotechnology, catalog number SC-47778) was used for loading controls.
Inhibition of Wnt signaling was determined by analyzing the reduction of cytosolic β-catenin by Western blot (FIG. 1, 2).
(In general: In western blotting, separated proteins are transferred to a membrane and probed.)

Test [4] relates to colon cancer cell line HCT116. As to the kind of experiment: Cell proliferation assay (MTS). The conditions noted are these: for IC50: Homo sapiens, HCT-116, HCT116, 72 hours, 0.04 to 10 μM, read-out: Anti-proliferation IC50 (μM), MTS assay; for Anti-proliferation activity, MTS assay, in words: HCT116, up to 10 μM. As for the experimental part:
The colon cancer cell line HCT116 was used in the cell proliferation assay. The cells were plated in 100 μl of growing medium/well in 96-well plates at 5,000 cells per well and treated with compounds from 0.04 to 10 μM for 72 hours, after which point the cells were analyzed by colorimetric MTS assay (Promega, Madison, Wis., USA). Data were fit using GraphPad Prism (mean±SEM, n 3).
A general note: Tetrazolium dyes change colour on reduction, which living cells bring about.

Where two headings read alike, the source gives them in different places.

T1 sequence (Q9UP38 70-647): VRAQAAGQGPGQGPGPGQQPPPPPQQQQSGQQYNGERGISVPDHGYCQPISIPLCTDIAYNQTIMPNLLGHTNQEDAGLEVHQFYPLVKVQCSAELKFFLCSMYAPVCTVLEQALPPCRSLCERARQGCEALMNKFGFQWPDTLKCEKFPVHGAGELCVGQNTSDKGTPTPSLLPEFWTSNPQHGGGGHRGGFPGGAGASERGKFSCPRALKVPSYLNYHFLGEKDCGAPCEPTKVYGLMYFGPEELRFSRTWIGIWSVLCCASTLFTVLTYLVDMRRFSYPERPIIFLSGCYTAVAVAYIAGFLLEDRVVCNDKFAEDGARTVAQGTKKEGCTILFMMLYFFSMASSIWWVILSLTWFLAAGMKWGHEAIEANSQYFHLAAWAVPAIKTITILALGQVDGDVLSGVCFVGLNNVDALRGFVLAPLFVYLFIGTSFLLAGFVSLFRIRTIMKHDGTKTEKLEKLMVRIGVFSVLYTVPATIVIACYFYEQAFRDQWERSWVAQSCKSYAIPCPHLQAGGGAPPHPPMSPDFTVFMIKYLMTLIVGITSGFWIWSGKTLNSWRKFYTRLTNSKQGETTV

Regarding `O=C(c1ccccc1)c1ccc(NC(=O)c2cc(Cl)ccc2O)cc1` [Compound 6, N-(4-benzoylphenyl)-5-chloro-2-hydroxybenzamide], the “Fzd1-GFP internalization @12.5 μM” value in test [1] came out at 0. For the same compound, the IC50 in test [2] (HEK293, 8 h) amounted to 15000 nM.
On to `O=C(Nc1ccc(C(F)(F)F)cc1)c1cc(Cl)ccc1O` [Compound 8, 5-chloro-2-hydroxy-N-(4-(trifluoromethyl)phenyl)benzamide], for which, in test [3] (HCT-116, 18 h), the activity at 2 µM was 7%. In addition, the “Fzd1-GFP internalization @12.5 μM” value in test [1] was 5. Further, the IC50 is 290 ± 60 nM in test [2] (HEK293, 8 h) and 0.67 ± 0.09 µM in test [4].
As to `O=C(Nc1cccc(C(F)(F)F)c1)c1cc(Cl)ccc1O` [Compound 9, 5-chloro-2-hydroxy-N-(3-(trifluoromethyl)phenyl)benzamide], in test [1], the “Fzd1-GFP internalization @12.5 μM” value amounted to 5. For the same compound, in test [2] (HEK293, 8 h), the IC50 was found to be 890 ± 320 nM.
For `O=C(Nc1ccc(C(F)(F)F)cc1F)c1cc(Cl)ccc1O` [Compound 10, 5-chloro-N-(2-fluoro-4-(trifluoromethyl)phenyl)-2-hydroxybenzamide], the “Fzd1-GFP internalization @12.5 μM” value in test [1] turned out to be 5. Also, the IC50 in test [2] (HEK293, 8 h) was found to be 550 ± 110 nM.
Take `O=C(Nc1ccc(Cl)cc1)c1cc(Cl)ccc1O` [Compound 11, 5-chloro-N-(4-chlorophenyl)-2-hydroxybenzamide]: the “Fzd1-GFP internalization @12.5 μM” value in test [1] is 0. Moreover, the IC50 in test [2] (HEK293, 8 h) turned out to be 1300 ± 180 nM.
As to `O=C(Nc1cccc(Cl)c1)c1cc(Cl)ccc1O` [Compound 12, 5-chloro-N-(3-chlorophenyl)-2-hydroxybenzamide], the “Fzd1-GFP internalization @12.5 μM” value in test [1] was 5. Further, the IC50 in test [2] (HEK293, 8 h) was 1650 ± 120 nM.
In the case of `O=C(Nc1ccccc1Cl)c1cc(Cl)ccc1O` [Compound 13, 5-chloro-N-(2-chlorophenyl)-2-hydroxybenzamide], in test [1], the “Fzd1-GFP internalization @12.5 μM” value amounted to 1. The IC50 in test [2] (HEK293, 8 h) was determined as 3050 ± 870 nM.
As to `O=C(Nc1ccc(Cl)cc1Cl)c1cc(Cl)ccc1O` [Compound 14, 5-chloro-N-(2,4-dichlorophenyl)-2-hydroxybenzamide], in test [3] (HCT-116, 18 h), the activity at 2 µM turned out to be 7%. The “Fzd1-GFP internalization @12.5 μM” value in test [1] was 5. Further, the IC50 was 420 ± 100 nM in test [2] (HEK293, 8 h) and 1.18 ± 0.14 µM in test [4].
On to `O=C(Nc1cc(Cl)ccc1Cl)c1cc(Cl)ccc1O` [Compound 15, 5-chloro-N-(2,5-dichlorophenyl)-2-hydroxybenzamide], for which the “Fzd1-GFP internalization @12.5 μM” value in test [1] was 5. For the same compound, the IC50 in test [2] (HEK293, 8 h) came to 750 ± 130 nM.
Turning to `O=C(Nc1cc(Cl)cc(Cl)c1)c1cc(Cl)ccc1O` [Compound 16, 5-chloro-N-(3,5-dichlorophenyl)-2-hydroxybenzamide], the “Fzd1-GFP internalization @12.5 μM” value in test [1] is given as 5. Further, the IC50 in test [2] (HEK293, 8 h) was 700 ± 130 nM.
As to `O=C(Nc1ccc(Cl)c(Cl)c1)c1cc(Cl)ccc1O` [Compound 17, 5-chloro-N-(3,4-dichlorophenyl)-2-hydroxybenzamide], the “Fzd1-GFP internalization @12.5 μM” value in test [1] was found to be 5. The IC50 in test [2] (HEK293) came to 730 ± 130 nM.
As to `O=C(Nc1c(Cl)cccc1Cl)c1cc(Cl)ccc1O` [Compound 18, 5-chloro-N-(2,6-dichlorophenyl)-2-hydroxybenzamide], the activity at 2 µM in test [3] (HCT-116, 18 h) came to 100%. In addition, the “Fzd1-GFP internalization @12.5 μM” value in test [1] is recorded as 0. Also, the IC50 in test [2] (HEK293, 8 h) is > 12000 nM. Further, in test [4], the “Anti-proliferation activity, MTS assay, in words” value is “no effect” and the IC50 is > 10 µM.
On to `O=C(Nc1ccc(F)cc1)c1cc(Cl)ccc1O` [Compound 19, 5-chloro-N-(4-fluorophenyl)-2-hydroxybenzamide], for which the “Fzd1-GFP internalization @12.5 μM” value in test [1] is 0. In addition, the IC50 in test [2] (HEK293, 8 h) came out at 3840 ± 290 nM.
As to `O=C(Nc1ccc(F)cc1F)c1cc(Cl)ccc1O` [Compound 20, 5-chloro-N-(2,4-difluorophenyl)-2-hydroxybenzamide], the “Fzd1-GFP internalization @12.5 μM” value in test [1] came out at 2. The IC50 in test [2] (HEK293, 8 h) turned out to be 4020 ± 790 nM.
For `O=C(Nc1ccc(F)cc1Cl)c1cc(Cl)ccc1O` [Compound 22, 5-chloro-N-(2-chloro-4-fluorophenyl)-2-hydroxybenzamide], in that order: 3 and 1410 ± 210 nM.
As to `O=C(Nc1ccc(F)c(Cl)c1)c1cc(Cl)ccc1O` [Compound 23, 5-chloro-N-(3-chloro-4-fluorophenyl)-2-hydroxybenzamide], the “Fzd1-GFP internalization @12.5 μM” value in test [1] was 5. Also, in test [2] (HEK293, 8 h), the IC50 was 1210 ± 170 nM.
For `CN(C(=O)c1cc(Cl)ccc1O)c1ccc(C(F)(F)F)cc1` [Compound 24, 5-chloro-2-hydroxy-N-methyl-N-(4-(trifluoromethyl)phenyl)benzamide], the activity at 2 µM in test [3] (HCT-116, 18 h) is 96%. Further, the “Fzd1-GFP internalization @12.5 μM” value in test [1] came to 0. Besides, the IC50 in test [2] (HEK293, 8 h) is > 12000 nM; in test [4] it was > 10 µM.
In the case of `O=C(NCc1ccc(C(F)(F)F)cc1)c1cc(Cl)ccc1O` [Compound 25, 5-chloro-2-hydroxy-N-(4-(trifluoromethyl)benzyl)benzamide], in test [1], the “Fzd1-GFP internalization @12.5 μM” value turned out to be 0. In test [2] (HEK293, 8 h), the IC50 came to 15100 ± 1400 nM.
With `O=C(NC(=O)c1cc(Cl)ccc1O)c1ccc(C(F)(F)F)cc1` [Compound 57, 5-Chloro-2-hydroxy-N-(4-(trifluoromethyl)benzoyl)benzamide], in test [1], the “Fzd1-GFP internalization @12.5 μM” value is given as 0. Also, the IC50 in test [2] (HEK293, 8 h) is > 12000 nM.
Turning to `O=S(=O)(Nc1ccc(C(F)(F)F)cc1Cl)c1cc(Cl)ccc1O` [Compound 58, 5-Chloro-N-(2-chloro-4-(trifluoromethyl)phenyl)-2-hydroxybenzenesulfonamide], the “Fzd1-GFP internalization @12.5 μM” value in test [1] worked out at 1. Also, the IC50 in test [2] (HEK293, 8 h) is 2570 ± 270 nM. Moreover, in test [4], the “Anti-proliferation activity, MTS assay, in words” value is given as “no effect”.
As to `CC(=O)Oc1ccc(Cl)cc1C(=O)Nc1ccc(C(F)(F)F)cc1Cl` [Compound 59, 4-Chloro-2-((2-chloro-4-(trifluoromethyl)phenyl)carbamoyl)phenyl acetate], in test [1], the “Fzd1-GFP internalization @12.5 μM” value is listed as 5. Further, the IC50 in test [2] (HEK293) is 320 ± 30 nM.
Regarding `CCOC(=O)Oc1ccc(Cl)cc1C(=O)Nc1ccc(C(F)(F)F)cc1Cl` [Compound 70, 4-Chloro-2-((2-chloro-4-(trifluoromethyl)phenyl)carbamoyl)phenyl ethyl carbonate], the activity at 2 µM in test [3] (18 hours) was determined as 8%. Also, the “Fzd1-GFP internalization @12.5 μM” value in test [1] was determined as 5. For the same compound, the results for the IC50 in test [2] (HEK293) and in test [4] were 340 ± 120 nM and 0.51 ± 0.06 µM, respectively.
Consider `O=c1oc2ccc(Cl)cc2c(=O)n1-c1ccc(C(F)(F)F)cc1Cl` [Compound 73, 6-Chloro-3-(2-chloro-4-(trifluoromethyl)phenyl)-2H-benzo[e][1,3]oxazine-2,4(3H)-dione], for which the activity at 2 µM in test [3] (HCT-116, 18 h) is 9%. The “Fzd1-GFP internalization @12.5 μM” value in test [1] amounted to 5. Besides, the IC50 came to 330 ± 100 nM in test [2] (HEK293, 8 h) and 0.55 ± 0.07 µM in test [4].
